Laboratory results from patent US5760230A, “4, 4'-bridged bis-2, 4-diaminoquinazolines” (Bayer Aktiengesellschaft, priority 1996, dated 1998).

Experiments:
[1] = test system: potassium channels (PC12 cells); assay: Non-radioactive Rb^+ efflux assay for the identification of potassium channel modulators in PC12 cells; format: cell-based; details: Rattus norvegicus, PC-12, 10 min, test concentration of 10 μM, 50 mM KCl stimulation
Experimental: 2) Non-radioactive Rb^+ efflux assay for the identification of potassium channel modulators
The potassium in PC12 cells is exchanged with rubidium, which is not present in the cells. This exchange is performed by incubating the cells over a period of 4 h in a physiological buffer containing 5.4 mM RbCl without KCl. This rubidium subsequently serves as a tracer for potassium.
The cells laden with Rb^+ in this way are washed three times and then stimulated by depolarization with 50 mM KCl to open potassium channels (10 min), causing Rb^+ to flow out of the cells into the supernatant according to the concentration gradient.
The rubidium contents in the cell supernatant and in the residual cells after they have been lysed with 1% Triton X-100 are then determined by means of atomic absorption spectroscopy. The relative proportion of rubidium in the cell supernatant (=Rb^+ efflux) is used as a measure of the potassium channel activity.
The effect of substances on the channel activity is measured by co-incubating, the test substance over the ten-minute stimulation period and determining its effect on the Rb^+ efflux in the manner described above.

[2] = biological target: apamine binding sites (bovine cerebral membrane, hippocampus); assay: Binding of ^125 I-apamine to bovine cerebral membrane; details: 30 pM ^125 I-apamine, calf hippocampus membranes, pH 7.4, 60 min on ice
Experimental: The compounds according to the invention are ligands for apamine-sensitive potassium channels. This can be shown by studying the affinity for apamine binding sites, e.g. in bovine cerebral membranes.
1) Binding of ^125 I-apamine to bovine cerebral membrane
Calf brains were obtained from the local abattoir. The hippocampus was prepared on ice and a membrane suspension was made up by homogenization twice in buffer (100 mM Tris-HCl, KCl 5 mM, pH 7.4) and centrifugation at 43,000×g. In a total volume of 500 μl, the incubation mixture contained 200 μg of membrane protein, 30 pM ^125 I-apamine and test substances in the concentration range 1×10^-9 to 1×10^-4 M. The non-specific binding of ^125 I-apamine was determined in the presence of 1×10^-7 M unlabelled apamine.
After preincubation for 30 min at room temperature (test substances and membrane homogenate), the samples were placed on ice for 10 min before the radioligand was added. The main incubation time was 60 min on ice. When the reaction time had elapsed, an excess of ice-cooled incubation buffer was added to each sample and the mixture was filtered with suction through cellulose acetate/nitrate membrane filters. The amount of bound ^125 I-apamine was measured with a gamma counter.

Compound | inhibition at 10 µM [1] [%] | Ki [2] [nM]
CCN(CC)c1nc(NCC2CCCC(CNc3nc(N(CC)CC)nc4ccccc34)C2)c2ccccc2n1 (mixture of isomers) [Example 1, 1,3-Bis-[(2-diethylamino-4-quinazolyl)-aminomethyl]-cyclohexane (cis/trans isomeric mixture)] | 80 | 160
CCN(CC)c1nc(NCCCCCNc2nc(N(CC)CC)nc3ccccc23)c2ccccc2n1 [Example 2] | – | 8
CCN(CC)c1nc(NCCCNc2nc(N(CC)CC)nc3ccccc23)c2ccccc2n1 [Example 3] | 81 | –
